From patent US9616125B2, “Stable nocathiacin lyophilized injection agent” (priority 2013, dated 2017)

Tests used:
[1] = tested on: methicillin-resistant staphylococcus aureus (MRSA); conditions: cited from earlier work
[2] = tested on: penicillin-resistant streptococcus pneumoniae (PRSP); conditions: cited from earlier work
[3] = tested on: vancomycin-resistant enterococcus (VRE); conditions: cited from earlier work
[4] = tested on: mycobacterium tuberculosis; conditions: cited from earlier work
[5] = Aqueous solubility of nocathiacin I versus pH (shake 24 h, filtration, HPLC)
Method: Excessive purified material of nocathiacin I is added in test tubes with stopper respectively, and a certain amounts of buffer solutions with pH 2, pH 3, pH 4, pH 5, pH 6 and pH 7 are added to ensure that the solutions are in a supersaturated state all the time, and the solutions are shaken for 24 h under room temperature. Then the solutions are filtered through a 0.22 millipore filter, and the subsequent filtrate is taken and fed in a high performance liquid chromatography to measure the drug contents. The chromatogram conditions are as follows. • Chromatographic column: Waters Symmetry, 150 mm×4.6 mm, 5 μm.
Mobile phase: A. distilled water containing 0.05% TFA; and B. acetonitrile containing 0.05% TFA.
Gradient: Gradient elution for 32 min, 30%-60% B.
Column temperature: 40° C., and rate of flow: 1 ml/min
Detection wavelength: 362 nm, and sample volume: 10 μl.

| Molecule | effective concentration [1] | effective concentration [2] | effective concentration [3] | effective concentration [4] | concentration of nocathiacin I solution that can be obtained ([5]; pH value of the liquid formulation controlled below 6) | solubility of nocathiacin I as a function of pH ([5]; within a scope of pH 1-7, FIG. 1) |
| --- | --- | --- | --- | --- | --- | --- |
| nocathiacin | less than 1 μg/ml | less than 1 μg/ml | less than 1 μg/ml | less than 1 μg/ml |  |  |
| C=C(NC(=O)c1csc(-c2nc3c(cc2O)-c2nc(cs2)C(=O)N[C@@H]([C@@H](C)O)C(=O)N/C(=C(\C)OC)c2nc(cs2)C(=O)N[C@@H]2c4nc(cs4)C(=O)N[C@@H](COC(=O)c4c5c6c(cccc6n4O)COC(=O)[C@@H](O[C@H]4C[C@](C)(O)[C@H](N(C)C)[C@H](C)O4)[C@H]2OC5)c2nc-3cs2)n1)C(N)=O.O=C(O)C(F)(F)F [nocathiacin I] |  |  |  |  | more than 0.5 mg/mL | decreases with the increase of pH value |
